This passage reports TGI and GI50 results from PubChem BioAssay (NCI).

Each structure is given as a SMILES string.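 Cultured in 96-well plates, cells were exposed to test compound for 48 hours across five concentrations. GI50: concentration for 50% inhibition of growth. The concentration for full growth arrest is given as TGI.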

Assay in all cases: NCI anticancer screen, dose series, 48 h
Assay [1] relates to SK-MEL-2 melanoma.
Assay [2] has as its system OVCAR-8 ovarian.
The subject of assay [3] is TK-10 renal.
The test system of assay [4] is HCT-116 colon.
The subject of assay [5] is ACHN renal.
Assay [6] relates to SF-268 CNS.
Assay [7] has as its system HL-60(TB) leukemia.
Assay [8] deals with SNB-19 CNS.
The test system of assay [9] is COLO 205 colon.
The test system of assay [10] is NCI-H23 lung.
The subject of assay [11] is NCI-H460 lung.
Assay [12] deals with UACC-62 melanoma.
Assay [13] has as its system MOLT-4 leukemia.
For assay [14], the system named is NCI-H522 lung.

Consider `O=C(N/N=C/c1cc(Br)cc(Br)c1[O-])c1ccccc1O.O=C(N/N=C/c1cc(Br)cc(Br)c1[O-])c1ccccc1O.[Zn+2]`, for which the TGI is 12 µM in assay [1]; 10.5 µM in assay [2]; 15 µM in assay [3]; 13 µM in assay [4]; 15 µM in [5]; 17.5 µM in [6]. In addition, the TGI was found to be 0.547 µM in assay [7]; 12.2 µM in assay [8]; 20.9 µM in assay [9]; 3.17 µM in [10]; 9.26 µM in assay [11]; 2.34 µM in assay [12]. In addition, the figures for the TGI in assay [13] and in [14] were greater than 100 µM and 1.47 µM, respectively.

For `C/C(=N\NC(=O)c1ccccc1O)c1cccc(/C(C)=N/NC(=O)c2ccccc2O)n1.O=S(=O)([O-])[O-].[Fe+2]`, the TGI in [1], in assay [2], in assay [3], in assay [4], in assay [5] and in assay [6] was greater than 100 µM throughout. Also, the TGI was 0.341 µM in [7]; greater than 100 µM in assay [8]; greater than 100 µM in [9]; greater than 100 µM in assay [10]; greater than 100 µM in assay [11]; greater than 100 µM in assay [12]. Besides, the TGI in assay [13] and in [14] was greater than 100 µM each time. Moreover, the GI50 is 69.2 µM in assay [4]; 0.156 µM in assay [7]; greater than 100 µM in assay [8]; greater than 100 µM in assay [9]; greater than 100 µM in [10]; greater than 100 µM in assay [14].
